Measured values taken from patent US20110059869A1, “Method for Increasing Enzymatic Reactivity” (RIKEN, priority 2008, published 2011).

Tests used:
Format in all cases: biochemical
[1] = test system: sequencing enzyme reaction solution of a Genome Sequencer FLX system; assay: Sequencing reaction of the 454 sequencing system (Genome Sequencer FLX); settings: trehalose 0.15 M and 0.3 M in sequencing reaction vs none
Description: In the 454 sequencing system described in 11 above, trehalose was added to the reaction solution to a final concentration of 0.3 M, the sequencing reaction was conducted, and the effect on the sequencing level was observed.
D(+)-trehalose was added to the sequencing enzyme reaction solution of a Genome Sequencer FLX system and the effects were measured. Two experiments were conducted with final D(+)-trehalose concentrations of 0.15 M and 0.3 M. The ratio of the read length to the decodable sample was employed for comparison.
The D(+)-trehalose employed was D(+)-trehalose dihydrate (201-02253 reagent grade) (Wako). A GS LR 25 Sequencing Kit (502906) was employed for sequencing with the Genome Sequencer FLX system. The samples employed here were a PolyA minus full length cDNA library prepared in-house and human genome prepared according to the manufacturer's protocol.
The D(+)-trehalose dihydrate (201-02253 reagent grade) (Wako) was added in the following proportion to the Buffer CB among the reagents contained in the GS LR 25 Sequencing Kit (502906).
The mixture was stirred with a magnetic stirrer. Once dissolution had been visually confirmed, the mixed solution was passed through a filter (filter pore system 0.22 micrometer). Following filtration, precisely the required 2× 1000 mL quantities were collected from the mixed solution. […]

[2] = test system: ligation enzymatic reaction solution of a SOLID system 2.0; assay: Sequencing reaction in a SOLID sequencing system; settings: 0.3 M trehalose vs none
Description: D(+)-trehalose was added to the ligation enzymatic reaction solution of a SOLID system 2.0 and the effects were measured. The experiment was conducted at a final D(+)-trehalose concentration of 0.3 M. The noise to signal ratio (N/S ratio) of each cycle was employed for comparison. The N/S ratio was obtained by dividing the second brightest fluorescence intensity by the brightest fluorescence intensity.
The D(+)-trehalose employed was D(+)-trehalose dihydrate (201-02253 reagent grade) (Wako). A SOLiD™ fragment library sequencing kit v2 (4400466) was employed for sequencing with the SOLID system (Applied Biosystems). The sample employed as a SOLiD™ DH10B fragment library control kit (4391889).
Probe Mixes A and B and bridge probe, prepared with the reagents contained in a SOLiD™ fragment library sequence kit v2 (4400466) and adjusted to a D(+)-trehalose (90208 BioChemika, 99.5% (HPLC)) (Fluka) concentration of 1.7 M, were added to each sequence primer in the quantities indicated below.
The operation was conducted according to the manufacturer's protocol following addition.

DNA polymerase = assay: 454 sequencing system, emulsion PCR on beads
Description: In the 454 sequencing system (Scheme 10), a DNA template was adsorbed onto spherical beads, immobilized, and subjected to enveloped amplification in a water-in-oil emulsion (emulsion PCR). Accordingly, the change in the sequencing analysis level when trehalose was added in emulsion PCR was examined.
In emulsion PCR, DNA is bonded by complementarily interaction with oligoprimer immobilized on beads and enveloped in a water-in-oil emulsion to form microreactors each comprised of a single bead and a single DNA fragment. An amplification reaction based on the DNA polymerase results in the amplification of each DNA fragment into several million copies per bead. Trehalose was added to a final concentration of 0.6 M to the reaction solution and the amplification reaction was conducted to examine the effect on the sequence analysis results (Scheme 11).
The samples employed were DNA fragments that had been obtained by PCR amplification of cDNA obtained by reverse transcription of short RNA (FIG. 11). The results obtained by this reaction are shown in FIGS. 12, 13, and 14, as well as in Table 2.
In the 454 sequencing system described in 11 above, trehalose was added to a final concentration of […] to the reaction solution, an amplification reaction was conducted, and the effect on the level of sequencing was examined.

restriction enzyme BceAI = assay: BceAI cleavage of biotin-labeled 300 bp DNA fragments adsorbed to streptavidin beads
Description: Biotin-labeled 300 by DNA fragments adsorbed (bound) to streptavidin beads were reacted with the restriction enzyme BceAI and the final concentration of the trehalose that was added to the system was examined as follows.
PCR was conducted with biotin-labeled primers (Seq. ID Nos. 1 and 2) on 300 by DNA fragments using pFLCIII vector as template. The fragments were cleaved at the type II restriction enzyme site BceAI, releasing 50 by DNA fragments that were detected. Paramagnetic streptavidin beads were washed with accessory 1× binding buffer, recovered with a magnetic stand to remove the supernatant, and then suspended in the same buffer. Equal volumes of the PCR product-containing solution and 2× binding buffer were mixed, the bead solution was added, and the mixture was gently stirred with top to bottom inversion and rotation for 15 minutes at room temperature to induce adsorption. The magnetic stand was used to recover the sample adsorption beads, which were washed three times with 1× binding buffer. They were then washed once with 1× BceAI buffer. […] The reaction solutions were added to washed beads, mixed, and reacted for 3 hours at 37° C. The beads were recovered with the magnetic stand and cleaved with restriction enzyme. The supernatant containing the cDNA that had been released was reacted with proteinase K, treated with phenol chloroform, and precipitated from ethanol. […]

restriction enzyme PstI = assay: PstI cleavage reaction on a spherical bead surface (DNA fragment III); settings: DNA adsorbed to beads, 0.6 M trehalose vs none
Description: Biotin-labeled DNA fragment III (Seq. ID No. 6, Scheme 4) was cleaved at the restriction enzyme PstI site on the surface of streptavidin beads and the 104 by DNA fragment released was examined. DNA fragment III (500 ng) and 2× binding buffer were admixed in equal volume quantities, a solution of beads suspended in 1× binding buffer was added, and the mixture was gently stirred with top to bottom inversion and rotation for 15 minutes at room temperature to induce adsorption. The beads onto which the sample had adsorbed were recovered with a magnetic stand, washed three times with 1× binding buffer, and washed once with 1× PstI buffer. Two types of reaction solution (1× PstI buffer, 1× BSA restriction enzyme 40 units) were prepared: a trehalose (+) system to which D(+)-trehalose was added to a final concentration of 0.6 M, and a trehalose (−) system to which no trehalose was added. Each of the reaction solutions was admixed to beads that had been washed and the mixtures were reacted for three hours at 37° C. The beads were recovered with the magnetic stand and cleaved with restriction enzyme. […] The precipitate of DNA fragments obtained was dissolved in 1× TE (pH 7.5) and analyzed with Bioanalyzer DNA 1000 assay (Agilent Technologies).

[3] = 0.3 M trehalose in emulsion PCR vs none
[4] = 0.6 M trehalose in emulsion PCR
[5] = trehalose 0.6 M in emulsion PCR, Region 2

Compound: OC[C@H]1O[C@H](O[C@H]2O[C@H](CO)[C@@H](O)[C@H](O)[C@H]2O)[C@H](O)[C@@H](O)[C@@H]1O [trehalose, D(+)-trehalose]
- number of sequences [1]: increased the number of sequences
- noise to signal ratio (N/S ratio) with each cycle [2]: reduced the rise in noise
- long fragments (sequence length) (DNA polymerase; [3]): increase in long fragments
- number of sequences (DNA polymerase; [3]): increased the number of sequences
- short fragments (sequence length) (DNA polymerase; [3]): reduction in short fragments
- DNA amplification wells (DNA polymerase; 0.6 M trehalose (+) compared to trehalose (−)): increasing the DNA amplification wells
- number of sequences and size of the regions that were decoded (DNA polymerase; 0.6 M trehalose (+) relative to trehalose (−)): increasing the number of sequences and the size of the regions that were decoded
- number of sequences read in sample DNA, increase relative to no trehalose (DNA polymerase; [4]): about 1.6 fold
- target regions contained in DNA fragments (tags) analyzed (DNA polymerase; [4]): more target regions were contained
- Keypass Wells (DNA polymerase; [5]): 341,546
- Passed Filter Wells (DNA polymerase; [5]): 207,398
- Raw Wells (DNA polymerase; [5]): 364,898
- change in yield of 50 by fragments with trehalose concentration (restriction enzyme BceAI; 0 M, 0.3 M, 0.6 M, and 0.8 M trehalose): No change was observed beyond 0.6 M
- yield of 50 by fragments released by cleavage (restriction enzyme BceAI; trehalose added vs not added, beads, 3 hours at 37° C.): increased
- yield of released DNA fragment (restriction enzyme PstI): higher yield
